≈ marks a conversion by molar mass, not a printed value.

Usually MIC stands for the least concentration at which growth counts as inhibited. Read a high MIC as weaker potency.

Some test systems named below: Escherichia coli 37; Klebsiella pneumoniae; Pseudomonas aeruginosa; Shigella dysenteriae; Staphylococcus aureus 10; Enterococcus sp. S13; Pseudomonas putida; Bacillus megaterium F04; Bacillus megaterium Bm11; Escherichia coli D21.
What all share (experiment): ≥ marks a high value that may be exact or a test limit, other limits are often not marked, values filed in µg/mL are converted to µM
Assay [1] deals with Candida albicans ATCC 2002.
Assay [2] deals with Enterobacter cloacae ATCC 13047.
Assay [3] concerns Enterococcus faecalis ATCC 29212.
Assay [4] concerns Escherichia coli ATCC 25922.
Assay [5] relates to Klebsiella pneumoniae ATCC 700603.
The test system of assay [6] is Pseudomonas aeruginosa ATCC 27853.
The test system of assay [7] is Pseudomonas aeruginosa CMCCB 1010.
The subject of assay [8] is Staphylococcus aureus ATCC 25923.
For assay [9], the system named is Bacillus magaterium AB90008.
Assay [10] deals with Candida tropicalis AY91009.
The subject of assay [11] is Enterobacter cloacae AB2010162.
In assay [12] the test system is Escherichia coli DH5alpha.
Assay [13] deals with Klebsiella oxytoca AB2010143.
Assay [14] concerns Micrococcus luteus AB2010179.
Assay [15] has as its system Salmonella enterica AB2010185.
Assay [16] has as its system Staphylococcus aureus 16472.
Assay [17] deals with Staphylococcus aureus AB94004.
For assay [18], the system named is Bacillus subtilis ATCC 9372.
The test system of assay [19] is Escherichia coli ATCC 8739.
For assay [20], the system named is Proteus vulgaris NCTC 4635.
Assay [21] concerns Pseudomonas aeruginosa ATCC 9027.
The test system of assay [22] is Staphylococcus aureus ATCC 6538.
Assay [23] concerns Legionella bozemanae ATCC 33217.
The test system of assay [24] is Legionella feeleii ATCC 35072.
In assay [25] the test system is Legionella longbeachae ATCC 33484.
Assay [26] deals with Legionella micdadei ATCC 33218.
In assay [27] the test system is Legionella oakridgensis ATCC 33761.
The subject of assay [28] is Legionella pneumophila ATCC 33155.
Assay [29] deals with Legionella pneumophila ATCC 33215.
The test system of assay [30] is Legionella pneumophila ATCC 33216.
For assay [31], the system named is Legionella pneumophila Corby.
The subject of assay [32] is Legionella pneumophila Lens.
Assay [33] deals with Legionella pneumophila Paris.
In assay [34] the test system is Bacillus subtilis ATCC 6633.
Assay [35] deals with Proteus vulgaris OX19 ATCC 6380.
The test system of assay [36] is Pseudomonas aeruginosa OT97.
Assay [37] has as its system Shigella flexneri ATCC 203.
Assay [38] relates to Staphylococcus aureus Cowan 1.
Assay [39] deals with Staphylococcus aureus JC-1.

Turning to `CC[C@H](C)[C@H](NC(=O)[C@H](CC(C)C)NC(=O)[C@H](CC(C)C)NC(=O)[C@H](CCCCN)NC(=O)[C@H](C)NC(=O)[C@H](CC(C)C)NC(=O)[C@H](CCCCN)NC(=O)[C@@H](NC(=O)[C@H](C)NC(=O)CNC(=O)[C@H](CCSC)NC(=O)[C@H](CO)NC(=O)[C@@H](N)CC(=O)O)C(C)C)C(=O)N[C@@H](CC(=O)O)C(=O)N[C@@H](CCCCN)C(=O)N[C@@H](CCSC)C(=O)N[C@@H](CCCCN)C(=O)N[C@H]1CSSC[C@@H](C(=O)O)NC(=O)[C@H](C)NC(=O)[C@H](CCCCN)NC(=O)[C@H]([C@@H](C)O)NC(=O)[C@H](C(C)C)NC(=O)[C@H](CCC(=O)O)NC1=O` [DSMGAVKLAKLLIDKMKCEVTKAC], the MIC is at least 60 µM in assay [1]; at least 40 µM in [2]; 60 µM (≈ 156 µg/mL) in assay [3]; at least 60 µM in the assay on Escherichia coli 37; 10 µM (≈ 25.9 µg/mL) in assay [4]; 15 µM (≈ 38.9 µg/mL) in [5]. For the same molecule, the MIC is 30 µM (≈ 77.8 µg/mL) with Klebsiella pneumoniae; 23 µM (≈ 59.7 µg/mL) in assay [6]; 17 µM (≈ 44.1 µg/mL) in assay [7]; 23 µM (≈ 59.7 µg/mL) in the assay with Pseudomonas aeruginosa; at least 40 µM in the assay with Shigella dysenteriae; at least 40 µM in the assay on Staphylococcus aureus 10. The same molecule displayed an MIC in assay [8] of 17 µM (≈ 44.1 µg/mL).
Turning to `CC[C@H](C)[C@H](NC(=O)CN)C(=O)N[C@@H](CC(C)C)C(=O)NCC(=O)N[C@@H](CCCCN)C(=O)N[C@@H](CC(C)C)C(=O)N[C@@H](Cc1c[nH]c2ccccc12)C(=O)N[C@@H](CCC(=O)O)C(=O)NCC(=O)N[C@@H](Cc1ccccc1)C(=O)N[C@@H](CCCCN)C(=O)N[C@@H](CO)C(=O)N[C@H](C(=O)N[C@H](C(=O)O)C(C)C)[C@@H](C)CC` [GILGKLWEGFKSIV], the MIC in [9] is at least 32 µM; in assay [10], 16 µM (≈ 24.8 µg/mL); in [11], at least 76 µM; in the assay with Enterococcus sp. S13, 28 µM (≈ 43.3 µg/mL); in [12], at least 62 µM; in assay [13] it was at least 87 µM. Moreover, the MIC in assay [14] is at least 32 µM; with Pseudomonas putida, at least 87 µM; in assay [15], at least 72 µM; in assay [16] it was 14 µM (≈ 21.7 µg/mL); in assay [17], 8 µM (≈ 12.4 µg/mL).
`CC[C@H](C)[C@H](NC(=O)[C@@H](NC(=O)[C@H](C)NC(=O)[C@H](Cc1ccccc1)NC(=O)[C@H](CC(C)C)NC(=O)CN)C(C)C)C(=O)N[C@@H](CCCCN)C(=O)N[C@@H](CCCCN)C(=O)N[C@H](C(=O)N[C@@H](C)C(=O)N[C@@H](CO)C(=O)N[C@H](C(=O)O)C(C)C)C(C)C` [GLFAVIKKVASV]: the minimal inhibitory concentration (MIC) is at least 52 µM in assay [18]; at least 104 µM in assay [19]; at least 416 µM in [20]; 208 µM (≈ 256 µg/mL) in assay [21]; 208 µM (≈ 256 µg/mL) in assay [22].
For `CC[C@H](C)[C@H](NC(=O)[C@H](CC(C)C)NC(=O)[C@H](CC(=O)O)NC(=O)[C@@H](NC(=O)[C@@H](NC(=O)[C@H](Cc1ccccc1)NC(=O)[C@H](CCC(N)=O)NC(=O)[C@@H](N)CCSC)[C@@H](C)CC)[C@@H](C)O)C(=O)N[C@@H](CCCCN)C(=O)N[C@@H](CCCCN)C(=O)N[C@@H](C)C(=O)N[C@H](C(=O)N[C@@H](CC(=O)O)C(=O)N[C@@H](Cc1ccccc1)C(=O)N[C@@H](Cc1ccccc1)C(=O)N[C@@H](CCCCN)C(=O)NCC(=O)N[C@@H](CC(C)C)C(=O)N[C@@H](Cc1ccccc1)C(=O)NCC(=O)N[C@@H](CC(N)=O)C(=O)N[C@@H](CCCCN)C(=O)O)C(C)C` [MQFITDLIKKAVDFFKGLFGNK], the MIC was found to be 4.69 µM (≈ 12 µg/mL) against Bacillus megaterium F04; 19.5 µM (≈ 50 µg/mL) in [23]; 19.5 µM (≈ 50 µg/mL) in assay [24]; 19.5 µM (≈ 50 µg/mL) in assay [25]; 19.5 µM (≈ 50 µg/mL) in [26]; 19.5 µM (≈ 50 µg/mL) in assay [27]. The MIC in assay [28] was determined as 19.5 µM (≈ 50 µg/mL); in [29], 19.5 µM (≈ 50 µg/mL); in assay [30], 19.5 µM (≈ 50 µg/mL); in assay [31] it was 19.5 µM (≈ 50 µg/mL); in assay [32] it was 1.17 µM (≈ 3 µg/mL); in [33] it was 19.5 µM (≈ 50 µg/mL).
Regarding `CC[C@H](C)[C@H](NC(=O)[C@H](CCCCN)NC(=O)[C@@H](NC(=O)[C@@H](NC(=O)[C@H](CCC(N)=O)NC(=O)CNC(=O)[C@H](Cc1cnc[nH]1)NC(=O)[C@H](CCC(N)=O)NC(=O)[C@@H](N)CC(N)=O)C(C)C)C(C)C)C(=O)N[C@@H](Cc1ccccc1)C(=O)N[C@@H](Cc1cnc[nH]1)C(=O)N[C@@H](Cc1cnc[nH]1)C(=O)O` [NQHGQVVKIFHH], the MIC in the assay on Bacillus megaterium Bm11 was at least 800 µM; in assay [34], at least 3200 µM; in the assay on Escherichia coli D21, at least 3200 µM; in assay [35], at least 6000 µM; in assay [36], at least 6000 µM; in [37], at least 6000 µM. Further, the MIC in assay [38] was at least 6000 µM; in [39], at least 1600 µM.

The values above are taken from DBAASP.
